Drawing on US8486918B2, “Phenyl oxadiazole derivatives as sphingosine 1-phosphate (S1P) receptor” (Allergan, Inc., priority 2010, dated 2013), this text covers EC50 for 8 compounds.

Each structure is given as a SMILES string.

One may read the EC50 as the concentration at which the effect is half-maximal.

T1 sequence (P21453 whole entry): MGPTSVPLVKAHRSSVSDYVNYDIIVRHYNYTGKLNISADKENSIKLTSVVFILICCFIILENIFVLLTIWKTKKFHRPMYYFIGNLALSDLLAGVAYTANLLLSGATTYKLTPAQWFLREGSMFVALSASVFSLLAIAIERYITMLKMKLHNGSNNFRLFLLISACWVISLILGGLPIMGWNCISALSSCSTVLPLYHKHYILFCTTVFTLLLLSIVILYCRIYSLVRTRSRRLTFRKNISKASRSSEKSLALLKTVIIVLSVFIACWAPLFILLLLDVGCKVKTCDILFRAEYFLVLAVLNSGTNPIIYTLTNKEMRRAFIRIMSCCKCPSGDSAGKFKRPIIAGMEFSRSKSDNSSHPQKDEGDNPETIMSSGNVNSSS

The test concerns the target T1, human S1P1 receptor (Homo sapiens, UniProt P21453).
T1 construct: expressed in transfected cells; membranes used
Briefly: GTP γ35S binding assay for S1P1 activity. Format: biochemical. The following applies: membranes of cells stably expressing the S1P1 receptor, test concentrations 0.08 to 5,000 nM. The protocol: Compounds were synthesized and tested for S1P1 activity using the GTP γ^35S binding assay. These compounds may be assessed for their ability to activate or block activation of the human S1P1 receptor in cells stably expressing the S1P1 receptor.
GTP γ^35S binding was measured in the medium containing (mM) HEPES 25, pH 7.4, MgCl2 10, NaCl 100, dithitothreitol 0.5, digitonin 0.003%, 0.2 nM GTP γ^35S, and 5 μg membrane protein in a volume of 150 μl. Test compounds were included in the concentration range from 0.08 to 5,000 nM unless indicated otherwise. Membranes were incubated with 100 μM 5′-adenylylimmidodiphosphate for 30 min, and subsequently with 10 μM GDP for 10 min on ice. Drug solutions and membrane were mixed, and then reactions were initiated by adding GTP γ^35S and continued for 30 min at 25° C. Reaction mixtures were filtered over Whatman GF/B filters under vacuum, and washed three times with 3 mL of ice-cold buffer (HEPES 25, pH7.4, MgCl2 10 and NaCl 100). Filters were dried and mixed with scintillant, and counted for ^35S activity using a β-counter. Agonist-induced GTP γ^35S binding was obtained by subtracting that in the absence of agonist. Binding data were analyzed using a non-linear regression method. In case of antagonist assay, the reaction mixture contained 10 nM S1P in the presence of test antagonist at concentrations ranging from 0.08 to 5000 nM.
(GTPγS is a poorly hydrolysed GTP analogue; its binding reports G protein activation.)
Take `Cc1ccc(SC(c2nc(-c3ccc(CNCCC(=O)O)cc3)no2)c2ccccc2Cl)cc1C` (centres unmarked) [Compound 5, 3-{[4-(5-{(2-chlorophenyl)[(3,4-dimethylphenyl)thio]methyl}-1,2,4-oxadiazol-3-yI)benzyl]amino}propanoic acid]: the EC50 is 146 nM.

In turn, `CCCc1cccc(OC(c2cccc(Cl)c2)c2nc(-c3ccc(CNCCC(=O)O)cc3)no2)c1` (centres unmarked) [3-[(4-{5-[(3-chlorophenyl)(3-propylphenoxy)methyl]-1,2,4-oxadiazol-3-yl}benzyl)amino]propanoic acid] showed an EC50 of 2100 nM. With `O=C(O)CCNCc1ccc(-c2noc(C(Oc3cccc(Cl)c3)c3ccccc3Cl)n2)cc1` (centres unmarked) [Compound 2, 3-[(4-{5-[(3-chlorophenoxy)(2-chlorophenyl)methyl]-1,2,4-oxadiazol-3-yl}benzyl)amino]propanoic acid] the figure was 2120 nM; with `COc1ccc(OC(c2nc(-c3ccc(CNCCC(=O)O)cc3)no2)c2ccccc2Cl)cc1C` (centres unmarked) [Compound 10, 3-[(4-{5-[(2-chlorophenyl)(4-methoxy-3-methylphenoxy)methyl]-1,2,4-oxadiazol-3-yl}benzyl)amino]propanoic acid], 209 nM. The value for `Cc1ccc(SC(c2cccc(Cl)c2)c2nc(-c3cc(C)c(OCC(O)CO)c(C)c3)no2)cc1C` (centres unmarked) [Compound 11, 3-[4-(5-{(3-chlorophenyl)[(3,4-dimethylphenyl)thio]methyl}-1,2,4-oxadiazol-3-yl)-2,6-dimethylphenoxy]propane-1,2-diol] was 29.9 nM.

`Cc1ccc(OC(c2cccc(Cl)c2)c2nc(-c3ccc(CNCCC(=O)O)cc3)no2)cc1` (centres unmarked) [Compound 8, 3-[(4-{5-[(3-chlorophenyl)(4-methylphenoxy)methyl]-1,2,4-oxadiazol-3-yl}benzyl)amino]propanoic acid] registered an EC50 of 420 nM. With `CCc1ccc(OC(c2cccc(Cl)c2)c2nc(-c3ccc(CNCCC(=O)O)cc3)no2)cc1` (centres unmarked) [Compound 7, 3-[(4-{5-[(3-chlorophenyl)(4-ethylphenoxy)methyl]-1,2,4-oxadiazol-3-yI}benzyl)amino]propanoic acid] the figure was 1080 nM; with `CCCc1ccc(OC(c2cccc(Cl)c2)c2nc(-c3ccc(CNCCC(=O)O)cc3)no2)cc1` (centres unmarked) [Compound 6, 3-[(4-{5-[(3-chlorophenyl)(4-propylphenoxy)methyl]-1,2,4-oxadiazol-3-yI}benzyl)amino]propanoic acid], 1600 nM.
